Article PMC9330389, “Bambus[4,6]urils as Dual Scaffolds for Multivalent Iminosugar Presentation and Ion Transport: Access to Unprecedented Glycosidase-Directed Anion Caging Agents” (Molecules, 2022)
Like-named read-outs stand apart in the source and are kept apart here.

Tests used:
Jack Bean α-mannosidase [1] = molecular target: T1, Jack Bean α-mannosidase (Canavalia ensiformis, UniProt C0HJB3); assay: Inhibition assays on Jack-Bean α-mannosidase (p-nitrophenyl-α-D-mannopyranoside hydrolysis, Dixon and Lineweaver–Burk); format: biochemical; conditions: for Ki: 0.2 M acetate buffer pH 5, 25-27 °C, for mixed inhibitors the first value of the cell (Ki); for Rp (relative potency): rp = Ki (monovalent reference)/Ki (neoglycocluster)
T1 construct: purchased Sigma Aldrich, St. Louis, MO, USA
T1 sequence (C0HJB3 1-981): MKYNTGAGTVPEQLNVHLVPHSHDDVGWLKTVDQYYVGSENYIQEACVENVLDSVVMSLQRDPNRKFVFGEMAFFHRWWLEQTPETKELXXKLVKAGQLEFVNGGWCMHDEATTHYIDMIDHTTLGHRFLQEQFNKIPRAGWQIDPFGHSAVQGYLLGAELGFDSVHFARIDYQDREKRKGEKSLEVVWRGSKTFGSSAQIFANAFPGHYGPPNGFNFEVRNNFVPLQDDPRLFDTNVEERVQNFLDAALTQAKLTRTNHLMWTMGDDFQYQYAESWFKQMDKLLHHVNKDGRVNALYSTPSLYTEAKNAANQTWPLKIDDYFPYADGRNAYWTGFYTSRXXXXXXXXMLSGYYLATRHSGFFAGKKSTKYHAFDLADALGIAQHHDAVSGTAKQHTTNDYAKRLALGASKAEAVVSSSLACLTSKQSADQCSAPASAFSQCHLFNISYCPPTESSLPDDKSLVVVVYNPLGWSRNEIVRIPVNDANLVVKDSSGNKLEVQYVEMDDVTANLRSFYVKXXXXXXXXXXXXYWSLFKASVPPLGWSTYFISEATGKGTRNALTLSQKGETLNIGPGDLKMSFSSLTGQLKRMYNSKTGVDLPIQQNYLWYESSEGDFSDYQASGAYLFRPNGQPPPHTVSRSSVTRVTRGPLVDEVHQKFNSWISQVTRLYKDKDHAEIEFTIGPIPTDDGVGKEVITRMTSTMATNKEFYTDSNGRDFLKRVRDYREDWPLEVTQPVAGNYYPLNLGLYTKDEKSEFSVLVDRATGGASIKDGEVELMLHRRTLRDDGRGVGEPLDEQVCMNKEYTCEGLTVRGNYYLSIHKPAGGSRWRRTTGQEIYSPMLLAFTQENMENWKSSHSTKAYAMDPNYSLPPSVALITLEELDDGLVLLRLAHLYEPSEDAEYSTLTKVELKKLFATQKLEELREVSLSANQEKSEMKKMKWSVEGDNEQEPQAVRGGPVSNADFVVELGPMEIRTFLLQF
Method: p-nitrophenyl-α-D-mannopyranoside and α-mannosidase (EC 3.2.1.24, from Jack Bean) were purchased from Sigma Aldrich, St. Louis, MO, USA. Inhibition constants were determined spectrophotometrically by measuring the residual hydrolytic activities of the α-mannosidase against p-nitrophenyl-α-D-mannopyranoside in the presence and absence of an inhibitor. Each well was filled with a total volume of 100 µL, containing 0.2 M acetate buffer pH 5, inhibitor, substrate and enzyme. All kinetics were performed between 25 °C and 27 °C and started by enzyme addition. After 30–50 min of incubation, the reaction was quenched by addition of 100 µL of 1M Na2CO3. The absorbance of the resulting solution was determined at 405 nm. Ki values were determined in triplicate, using the Dixon and Lineweaver–Burk graphical methods within Microsoft Excel. Stock solutions of inhibitors were prepared with DMSO/buffer for final well DMSO content under 5%. The stability of the enzyme in the presence of the same concentrations of DMSO was controlled and enzyme activity was unaffected.

[2] = Isothermal titration calorimetry of iodide binding to bambusuril; conditions: in water, ITC
Method: ITC measurements were performed with a VP-ITC microcalorimeter (Microcal, GEHealthcare). Experiments were carried out in water and in a solution of K2HPO4 (1.5 mM) in mili-Q water at 298.15 ± 0.1 K. Anion binding to BU was investigated via a classical isothermal titration experiment (10 µL additions) and a single injection method (SIM). Injection of sodium iodide solution was added automatically to the BU solution present in the calorimeter cell while stirring at 307 rpm. Integrated heat effects were analyzed by non-linear regression using a single-site binding model (Microcal Origin 7). The experimental data fitted to a theorical titration curve, giving the association constant Ka, the enthalpy of binding ΔH° and the entropy ΔS°. The free energy ΔG° was calculated from the equation: ΔG° = ΔH° − TΔS°, where T is the absolute temperature. The first smaller addition (2 µL), which was used to compensate for diffusion of the guest from the injector during equilibration, was discarded prior to data fitting.
Figure S1. Isothermal titration calorimetry of I- binding to (DNJ-C6)12BU[6] 6 in H2O.
Top: Data were obtained from the sequential injections of 10µL of guest solution (0.6 mM NaI) to BU
6 (0.05 mM). Bottom: Plot of the total heat released as a function of the total ligand concentration
for the titration shown upper.
(1 picture or pasted object on this page, not shown here)

Jack Bean α-mannosidase [3] = molecular target: T1, Jack Bean α-mannosidase; conditions: cited from earlier work; for Inhibition Mode: monovalent references

Row | Inhibition Mode (Jack Bean α-mannosidase [1]) | Ki (Jack Bean α-mannosidase [1]) [µM] | Ki' (Jack Bean α-mannosidase [1]; mixed inhibition, second value of the cell (Ki' in supplement)) [µM] | Rp (relative potency) (Jack Bean α-mannosidase [1]) | Ka (iodide) [2] [M⁻¹] | rp/n (relative potency per inhitope) (Jack Bean α-mannosidase [1]; n = number of inhitope units) | SMILES | Ki (Jack Bean α-mannosidase [3]; monovalent C6 reference) [µM] | Inhibition Mode (Jack Bean α-mannosidase [3]) | Ki (Jack Bean α-mannosidase [3]; monovalent C9 reference) [µM]
1 | mixed | 68.2 | 147 ± 21 | 4.7 | 480000 | – | O=C1N(Cc2cn(CCCCCCN3C[C@H](O)[C@@H](O)[C@H](O)[C@H]3CO)nn2)C2C(N1Cc1cn(CCCCCCN3C[C@H](O)[C@@H](O)[C@H](O)[C@H]3CO)nn1)N1CN3C(=O)N(CN4C(=O)N(CN5C(=O)N(CN6C(=O)N(CN7C(=O)N(CN2C1=O)C1C7N(Cc2cn(CCCCCCN7C[C@H](O)[C@@H](O)[C@H](O)[C@H]7CO)nn2)C(=O)N1Cc1cn(CCCCCCN2C[C@H](O)[C@@H](O)[C@H](O)[C@H]2CO)nn1)C1C6N(Cc2cn(CCCCCCN6C[C@H](O)[C@@H](O)[C@H](O)[C@H]6CO)nn2)C(=O)N1Cc1cn(CCCCCCN2C[C@H](O)[C@@H](O)[C@H](O)[C@H]2CO)nn1)C1C5N(Cc2cn(CCCCCCN5C[C@H](O)[C@@H](O)[C@H](O)[C@H]5CO)nn2)C(=O)N1Cc1cn(CCCCCCN2C[C@H](O)[C@@H](O)[C@H](O)[C@H]2CO)nn1)C1C4N(Cc2cn(CCCCCCN4C[C@H](O)[C@@H](O)[C@H](O)[C@H]4CO)nn2)C(=O)N1Cc1cn(CCCCCCN2C[C@H](O)[C@@H](O)[C@H](O)[C@H]2CO)nn1)C1C3N(Cc2cn(CCCCCCN3C[C@H](O)[C@@H](O)[C@H](O)[C@H]3CO)nn2)C(=O)N1Cc1cn(CCCCCCN2C[C@H](O)[C@@H](O)[C@H](O)[C@H]2CO)nn1 (stereo partly shown) [Compound 6, (DNJ-C6)12BU[6]] | – | – | –
2 | competitive | 0.488 | – | 385 | – | 32 | CCCC[N+](CCCC)(CCCC)CCCC.O=C1N(Cc2cn(CCCCCCCCCN3C[C@H](O)[C@@H](O)[C@H](O)[C@H]3CO)nn2)C2C(N1Cc1cn(CCCCCCCCCN3C[C@H](O)[C@@H](O)[C@H](O)[C@H]3CO)nn1)N1CN3C(=O)N(CN4C(=O)N(CN5C(=O)N(CN6C(=O)N(CN7C(=O)N(CN2C1=O)C1C7N(Cc2cn(CCCCCCCCCN7C[C@H](O)[C@@H](O)[C@H](O)[C@H]7CO)nn2)C(=O)N1Cc1cn(CCCCCCCCCN2C[C@H](O)[C@@H](O)[C@H](O)[C@H]2CO)nn1)C1C6N(Cc2cn(CCCCCCCCCN6C[C@H](O)[C@@H](O)[C@H](O)[C@H]6CO)nn2)C(=O)N1Cc1cn(CCCCCCCCCN2C[C@H](O)[C@@H](O)[C@H](O)[C@H]2CO)nn1)C1C5N(Cc2cn(CCCCCCCCCN5C[C@H](O)[C@@H](O)[C@H](O)[C@H]5CO)nn2)C(=O)N1Cc1cn(CCCCCCCCCN2C[C@H](O)[C@@H](O)[C@H](O)[C@H]2CO)nn1)C1C4N(Cc2cn(CCCCCCCCCN4C[C@H](O)[C@@H](O)[C@H](O)[C@H]4CO)nn2)C(=O)N1Cc1cn(CCCCCCCCCN2C[C@H](O)[C@@H](O)[C@H](O)[C@H]2CO)nn1)C1C3N(Cc2cn(CCCCCCCCCN3C[C@H](O)[C@@H](O)[C@H](O)[C@H]3CO)nn2)C(=O)N1Cc1cn(CCCCCCCCCN2C[C@H](O)[C@@H](O)[C@H](O)[C@H]2CO)nn1.[Br-] (stereo partly shown) [Compound 10, Br^-@(DNJ-C9)12BU[6].TBA^+] | – | – | –
3 | – | – | – | – | – | – | CCCn1cc(CCCCCCN2C[C@H](O)[C@@H](O)[C@H](O)[C@H]2CO)nn1 [Compound 21] | 322 | competitive | –
4 | – | – | – | – | – | – | CCCn1cc(CCCCCCCCCN2C[C@H](O)[C@@H](O)[C@H](O)[C@H]2CO)nn1 [Compound 22] | – | competitive | 188
